Patent US8637484B2, “Modulation of growth hormone receptor expression and insulin-like growth factor expression” (Antisense Therapeutic Limited, priority 2003, dated 2014)
In the oligonucleotide strings, read from the 5' end, every base follows the letter of its sugar. An asterisk marks phosphorothioate; unmarked linkages are phosphodiester. Other units and linkages are bracketed, terminal groups are in braces. A string of capitals states the bases alone. e = 2'-O-(2-methoxyethyl) (MOE); [5mC] = 5-methylcytosine; d = 2'-deoxy (DNA)

system: mouse growth hormone receptor mRNA; experiment: Inhibition of mouse growth hormone receptor mRNA levels in b.END cells, quantitative real-time PCR; format: cell-based; set-up: % INHIB: concentration or dose not given beside the values; settings: dose-response studies
Method: The mouse brain endothelial cell line b.END was obtained from Dr. Werner Risau at the Max Plank Instititute (Bad Nauheim, Germany). b.END cells were routinely cultured in DMEM, high glucose (Gibco/Life Technologies, Gaithersburg, Md.) supplemented with 10% fetal calf serum (Gibco/Life Technologies, Gaithersburg, Md.). Cells were routinely passaged by trypsinization and dilution when they reached 90% confluence. Cells were seeded into 96-well plates (Falcon-Primaria #3872) at a density of 3000 cells/well for use in RT-PCR analysis.
When cells reached 65-75% confluency, they were treated with oligonucleotide. For cells grown in 96-well plates, wells were washed once with 100 μL OPTI-MEM™-1 reduced-serum medium (Invitrogen Corporation, Carlsbad, Calif.) and then treated with 130 μL of OPTI-MEM™-1 containing 3.75 μg/mL LIPOFECTIN™ (Invitrogen Corporation, Carlsbad, Calif.) and the desired concentration of oligonucleotide. Cells are treated and data are obtained in triplicate. After 4-7 hours of treatment at 37° C., the medium was replaced with fresh medium. Cells were harvested 16-24 hours after oligonucleotide treatment.
Total RNA was isolated using an RNEASY 96™ kit and buffers purchased from Qiagen Inc. (Valencia, Calif.) following the manufacturer's recommended procedures. Briefly, for cells grown on 96-well plates, growth medium was removed from the cells and each well was washed with 200 μL cold PBS. 150 μL Buffer RLT was added to each well and the plate vigorously agitated for 20 seconds. 150 μL of 70% ethanol was then added to each well and the contents mixed by pipetting three times up and down. The samples were then transferred to the RNEASY 96™ well plate attached to a QIAVAC™ manifold fitted with a waste collection tray and attached to a vacuum source. Vacuum was applied for 1 minute. 500 μL of Buffer RW1 was added to each well of the RNEASY 96™ plate and incubated for 15 minutes and the vacuum was again applied for 1 minute. An additional 500 μL of Buffer RW1 was added to each well of the RNEASY 96™ plate and the vacuum was applied for 2 minutes. 1 mL of Buffer RPE was then added to each well of the RNEASY 96™ plate and the vacuum applied for a period of 90 seconds. The Buffer RPE wash was then repeated and the vacuum was applied for an additional 3 minutes. The plate was then removed from the QIAVAC™ manifold and blotted dry on paper towels. The plate was then re-attached to the QIAVAC™ manifold fitted with a collection tube rack containing 1.2 mL collection tubes. RNA was then eluted by pipetting 140 μL of RNAse free water into each well, incubating 1 minute, and then applying the vacuum for 3 minutes.
Quantitation of growth hormone receptor mRNA levels was accomplished by real-time quantitative PCR using the ABI PRISM™ 7600, 7700, or 7900 Sequence Detection System (PE-Applied Biosystems, Foster City, Calif.) according to manufacturer's instructions. This is a closed-tube, non-gel-based, fluorescence detection system which allows high-throughput quantitation of polymerase chain reaction (PCR) products in real-time. As opposed to standard PCR in which amplification products are quantitated after the PCR is completed, products in real-time quantitative PCR are quantitated as they accumulate. This is accomplished by including in the PCR reaction an oligonucleotide probe that anneals specifically between the forward and reverse PCR primers, and contains two fluorescent dyes. A reporter dye (e.g., FAM or JOE, obtained from either PE-Applied Biosystems, Foster City, Calif., Operon Technologies Inc., Alameda, Calif. or Integrated DNA Technologies Inc., Coralville, Iowa) is attached to the 5′ end of the probe and a quencher dye (e.g., TAMRA, obtained from either PE-Applied Biosystems, Foster City, Calif., Operon Technologies Inc., Alameda, Calif. or Integrated DNA Technologies Inc., Coralville, Iowa) is attached to the 3′ end of the probe. […]

| Substance | IC50 [nM] |
| --- | --- |
| 227507 (antisense eG*eT*e[5mC]*e[5mC]*eT*dT*dG*d[5mC]*dT*d[5mC]*d[5mC]*dA*dG*dG*dT*eT*eA*eG*e[5mC]*eA) [compound 227507] | ~12.5 |

same assay, conditions: mouse growth hormone receptor mRNA, b.END cells, averages from three experiments

| Substance | % INHIB [%] |
| --- | --- |
| 227503 (antisense eT*eA*e[5mC]*e[5mC]*eT*dG*dA*dG*dA*d[5mC]*d[5mC]*d[5mC]*d[5mC]*dA*dG*eT*eT*e[5mC]*eA*eT) [compound 227503] | 24 |
| 227463 (antisense eA*eT*e[5mC]*eA*eG*d[5mC]*dA*dT*d[5mC]*dT*dT*dA*dA*dT*d[5mC]*e[5mC]*eT*eT*eT*eG) [compound 227463] | 39 |
| 227449 (antisense eA*e[5mC]*eG*eA*e[5mC]*dA*d[5mC]*dT*dT*dG*dG*dT*dG*dA*dA*eT*e[5mC]*eG*eA*eG) [compound 227449] | 69 |
| 227493 (antisense eT*e[5mC]*e[5mC]*e[5mC]*eA*dA*d[5mC]*dA*d[5mC]*dA*dG*dA*dT*dT*dT*eA*eA*eA*eA*e[5mC]) [compound 227493] | 51 |
| 227460 (antisense eA*eA*e[5mC]*eT*eG*dG*dA*dT*dA*dT*d[5mC]*dT*dT*d[5mC]*dT*eT*e[5mC]*eA*e[5mC]*eA) [compound 227460] | 43 |
| 227465 (antisense eT*eG*eA*eG*eA*dA*dG*dA*dT*d[5mC]*dT*dG*dG*dA*dT*e[5mC]*eA*eA*eT*e[5mC]) [compound 227465] | 51 |
| 227455 (antisense eA*eG*eT*eA*eG*dG*dG*dT*dA*dT*d[5mC]*d[5mC]*dA*dA*dA*eT*eG*eG*eA*eG) [compound 227455] | 43 |
| 227474 (antisense eT*eG*eT*e[5mC]*eG*d[5mC]*dT*dT*dA*d[5mC]*dT*dT*dG*dG*dG*e[5mC]*eA*eT*eA*eA) [compound 227474] | 68 |
| 227458 (antisense eG*eT*eA*e[5mC]*eT*dG*dA*dA*dT*dT*dT*d[5mC]*dA*dT*dA*e[5mC]*eT*e[5mC]*e[5mC]*eA) [compound 227458] | 75 |
| 227476 (antisense eG*eT*eA*eA*eT*dT*dT*dT*d[5mC]*dT*dT*dG*dG*d[5mC]*dA*eG*eG*eG*e[5mC]*eG) [compound 227476] | 41 |
| 227510 (antisense e[5mC]*eT*e[5mC]*e[5mC]*eA*dG*dA*d[5mC]*dG*dT*dG*dA*d[5mC]*d[5mC]*d[5mC]*eG*eA*e[5mC]*eT*e[5mC]) [compound 227510] | 64 |
| 227513 (antisense eT*eA*e[5mC]*e[5mC]*eT*dG*dA*dG*dA*d[5mC]*d[5mC]*dT*dG*d[5mC]*dA*eA*eG*eA*e[5mC]*eA) [compound 227513] | 40 |
| 227479 (antisense eA*eT*eG*eT*e[5mC]*d[5mC]*dT*d[5mC]*dT*dT*dG*dG*dT*dT*dA*eA*eA*eG*e[5mC]*eT) [compound 227479] | 59 |
| 227507 (antisense eG*eT*e[5mC]*e[5mC]*eT*dT*dG*d[5mC]*dT*d[5mC]*d[5mC]*dA*dG*dG*dT*eT*eA*eG*e[5mC]*eA) [compound 227507] | 89 |
| 227498 (antisense eT*eT*eG*eT*eA*dA*dA*dA*dA*dT*d[5mC]*dT*dA*dA*d[5mC]*eT*eT*eG*eT*eT) [compound 227498] | 49 |
| 227517 (antisense e[5mC]*eT*eT*e[5mC]*eA*d[5mC]*dT*dA*dA*d[5mC]*d[5mC]*dT*dT*dG*d[5mC]*eA*eG*e[5mC]*eT*eT) [compound 227517] | 63 |
| 227445 (antisense eT*eA*e[5mC]*e[5mC]*eT*dG*dA*dG*dA*d[5mC]*d[5mC]*dT*d[5mC]*dG*dG*eA*eG*eT*eT*eT) [compound 227445] | 69 |
| 227497 (antisense eT*eA*eA*eA*eT*dG*dT*dT*dT*dT*dG*d[5mC]*dA*dT*dA*eT*e[5mC]*e[5mC]*eA*eA) [compound 227497] | 77 |

| Substance | % INHIB [%] |
| --- | --- |
| 227472 (antisense eA*eG*eA*eG*e[5mC]*d[5mC]*dA*dA*dG*dG*dG*dA*dA*dG*d[5mC]*eA*eT*e[5mC]*eA*eT) [compound 227472] | 42 |
| 227496 (antisense eG*e[5mC]*eA*eT*eT*d[5mC]*dA*dA*dT*dT*dT*d[5mC]*d[5mC]*dT*dG*eA*eA*e[5mC]*eT*eG) [compound 227496] | 51 |
| 227515 (antisense eA*eA*eA*eT*eT*d[5mC]*dT*dT*dA*d[5mC]*dT*dT*dG*dT*d[5mC]*e[5mC]*e[5mC]*e[5mC]*eA*eG) [compound 227515] | 37 |
| 227448 (antisense eT*eT*eT*eG*e[5mC]*d[5mC]*dA*dA*dG*dA*dG*dT*dA*dG*d[5mC]*eT*eG*eG*eT*eG) [compound 227448] | 60 |
| 227492 (antisense eT*eA*eA*eA*eA*d[5mC]*dA*dT*dA*dG*dT*dT*dT*dT*dG*eG*eT*eT*eT*eA) [compound 227492] | 7 |
| 227486 (antisense e[5mC]*eG*eG*eT*eG*dT*dG*dA*dA*d[5mC]*d[5mC]*dG*dT*dG*dG*eT*eG*eT*eA*eG) [compound 227486] | 39 |
| 227520 (antisense e[5mC]*eA*eT*e[5mC]*eT*dT*dA*dA*dT*d[5mC]*d[5mC]*dT*dT*dG*dG*eA*eA*eA*e[5mC]*eA) [compound 227520] | 42 |
| 227471 (antisense eA*eG*eG*e[5mC]*eA*d[5mC]*dA*dA*dG*dA*dG*dA*dT*d[5mC]*dA*eG*e[5mC]*eT*eT*e[5mC]) [compound 227471] | 52 |
| 227446 (antisense eA*e[5mC]*eA*eA*eA*dG*dA*dT*d[5mC]*d[5mC]*dA*dT*dA*d[5mC]*d[5mC]*eT*eG*eA*eG*eA) [compound 227446] | 87 |
| 227456 (antisense eG*eT*e[5mC]*e[5mC]*eA*dG*dT*dT*dG*dA*dG*dG*d[5mC]*d[5mC]*dA*eA*eT*eG*eG*eG) [compound 227456] | 97 |
| 227491 (antisense eT*eA*eG*eG*eA*dA*dA*dG*dG*d[5mC]*dT*dA*d[5mC]*dT*dG*e[5mC]*eA*eT*eG*eA) [compound 227491] | 65 |
| 227459 (antisense e[5mC]*eT*eG*eA*eA*d[5mC]*dT*d[5mC]*dG*d[5mC]*dT*dG*dT*dA*d[5mC]*eT*eT*eT*eT*e[5mC]) [compound 227459] | 60 |
| 227506 (antisense e[5mC]*e[5mC]*eT*e[5mC]*e[5mC]*dA*dG*dT*dA*d[5mC]*d[5mC]*dT*d[5mC]*dG*dG*eA*eG*eT*eT*eT) [compound 227506] | 69 |
| 227508 (antisense eT*eT*e[5mC]*e[5mC]*eA*d[5mC]*dT*d[5mC]*dA*d[5mC]*d[5mC]*d[5mC]*d[5mC]*dA*dG*eT*eT*e[5mC]*eA*eT) [compound 227508] | 51 |
| 227487 (antisense eT*e[5mC]*eA*eG*eG*d[5mC]*dA*dA*dA*dG*dG*d[5mC]*dA*dA*dA*eG*e[5mC]*eA*eG*eT) [compound 227487] | 44 |
| 227454 (antisense eA*eG*eT*eT*eG*dA*dA*dG*dT*dA*dA*d[5mC]*dA*dG*d[5mC]*eT*eG*eT*eT*eT) [compound 227454] | 69 |
| 227514 (antisense eA*eT*eG*e[5mC]*eT*d[5mC]*dA*d[5mC]*dG*dT*d[5mC]*dA*dG*d[5mC]*dT*eA*eT*eT*eG*eG) [compound 227514] | 43 |
